According to patent US20140066365A1, “USE OF CALIXARENES ASSOCIATED WITH AN ANTIBIOTIC IN THE TREATMENT OF BACTERIAL INFECTIONS” (priority 2011, published 2014):
In brackets after ≈: the same amount, converted by molar mass. Like-named read-outs stand apart in the source and are kept apart here. Blank lines part the entries; values can stand above or below the compound they belong to.

What was measured:
[1] = system: ESBL-producing strain of Escherichia coli, having an associated resistance to the aminoglycosides (EcR3); test: MIC of the compounds used alone, microdilution in a liquid medium (CLSI); type: cell-based; conditions: Escherichia coli, antibiotic alone (second value of cell), read-out: Initial MICs
From the text: (§1) The MICs of the antibiotics were previously defined for each strain, by the method of microdilution in a liquid medium (CLSI (Clinical and Laboratory Standards Institute), 2003).

[2] = system: Escherichia coli strain ATCC 25922 (wild type); test: as above; type: cell-based; conditions: Escherichia coli, ATCC25922; antibiotic alone (second value of cell); E. coli ATCC 25922; read-out: Initial MICs
From the text: as §1

[3] = system: Pseudomonas aeruginosa strain ATCC 27853 (wild type); test: as above; type: cell-based; conditions: Pseudomonas aeruginosa, ATCC27853; antibiotic alone (second value of cell); P. aeruginosa ATCC 27853; read-out: MIC
From the text: as §1

[4] = system: Pseudomonas aeruginosa strain PaR3; test: as above; type: cell-based; conditions: Pseudomonas aeruginosa, antibiotic alone (second value of cell), read-out: MIC
From the text: as §1

[5] = system: cephalosporinase-hyperproducing strain of Escherichia coli (EcR2); test: as above; type: cell-based; conditions: Escherichia coli, antibiotic alone (second value of cell), read-out: Initial MICs
From the text: as §1

[6] = system: mucoid strain of Pseudomonas aeruginosa PaR5; test: as above; type: cell-based; conditions: Pseudomonas aeruginosa, antibiotic alone (second value of cell), read-out: MIC
From the text: as §1

[7] = system: penicillinase-producing strain of Escherichia coli without associated resistance (EcR1); test: as above; type: cell-based; conditions: Escherichia coli, antibiotic alone (second value of cell), read-out: Initial MICs
From the text: as §1

[8] = system: Pseudomonas aeruginosa strain PaR2; test: microbe, parasite or virus in culture; type: cell-based; conditions: Pseudomonas aeruginosa, antibiotic alone (second value of cell), read-out: MIC
From the text: as §1

[9] = system: EcR1: Penicillinase-Producing Escherichia coli without Associated Resistance; test: Antibiogram, MIC by the VITEK 2 system; type: cell-based; conditions: for MIC: Escherichia coli
Experimental: 5.1 EcR1: Penicillinase-Producing Escherichia coli without Associated Resistance The bacterial and antibiogramidentification is carried out by the VITEK 2 system (bioMérieux) and by the disk diffusion technique.

[10] = system: EcR2: Cephalosporinase-Hyperproducing Strain of Escherichia coli; test: Antibiogram by the disk diffusion technique; type: cell-based
Experimental: (§2) The bacterial and antibiogramidentification is carried out by the VITEK 1 system (bioMérieux) and by the disk diffusion technique

[11] = system: PaR3: Pseudomonas aeruginosa; test: Antibiogram, MIC by the VITEK 2 system; type: cell-based
Experimental: (§3) The bacterial and antibiogramidentification is carried out by the VITEK 2 system (bioMérieux)

[12] = system: PaR5: Pseudomonas aeruginosa; test: Antibiogram by the disk diffusion technique; type: cell-based; conditions: for diameter in mm: disk diffusion inhibition diameter, strain PaR5
Experimental: (§4) The bacterial and antibiogramidentification is carried out by the VITEK 2 system (bioMérieux) and by the disk diffusion technique

[13] = system: PaR2: Pseudomonas aeruginosa; type: cell-based; conditions: for Diameter: Table G1; for diameter in mm: Table G2
Experimental: as §4

[14] = system: Escherichia coli, Staphylococcus aureus and Pseudomonas aeruginosa strains; test: Chessboard technique, summary statements over all strains and combinations tested; type: cell-based; conditions: strain not stated
From the text: 1.3. Procedure: Chessboard Technique
The same procedure is followed for the Cx1. […] Thus 64 ATB/Cx1 combinations are obtained.
The FIC (Fractional Inhibitory Concentration Index) value is defined by the following formula: […]
When FIC≦0.5, there is a synergistic effect between antibiotic A and antibiotic B.
When 0.5<FIC≦1, there is an additive effect between antibiotic A and antibiotic B.
When 1<FIC≦4, there is an indifferent effect between antibiotic A and antibiotic B.
When FIC>4, there is an antagonistic effect between antibiotic A and antibiotic B.
For each strain and each antibiotic/Cx1 combination, the experiments were repeated a minimum of 3 times.

[15] = system: Staphylococcus aureus strain ATCC 29213 (wild type); test: MIC of the compounds used alone, microdilution in a liquid medium (CLSI); type: cell-based; conditions: Staphylococcus aureus
From the text: as §1

[16] = as above; type: cell-based, Staphylococcus aureus; conditions: Staphylococcus aureus, MRSA
From the text: as §1

[17] = system: MRSA strain having a resistance to the aminoglycosides and fluoroquinolones (SaR3); test: as above; type: cell-based, Staphylococcus aureus; conditions: Staphylococcus aureus, MRSA
From the text: as §1

[18] = system: MRSA strain without associated resistance (SaR1); test: as above; type: cell-based, Staphylococcus aureus; conditions: Staphylococcus aureus, MRSA
From the text: as §1

[19] = system: SaR1: Meticillin-Resistant Staphylococcus aureus without Associated Resistance; test: Antibiogram, MIC by the VITEK 2 system; type: cell-based; conditions: SaR1
Experimental: as §3

[20] = system: SaR3: Meticillin-Resistant Staphylococcus aureus; test: Antibiogram by the disk diffusion technique; type: cell-based
Experimental: as §4

[21] = system: SaR4: Meticillin-Resistant Staphylococcus aureus; test: Antibiogram, MIC by the VITEK 2 system; type: cell-based; conditions: SaR4; for MIC: Staphylococcus aureus, read-out: MIC
Experimental: as §4

[22] = system: SaR1: Meticillin-Resistant Staphylococcus aureus without Associated Resistance; test: Antibiogram, inhibition diameter (Table D1); type: cell-based
Experimental: as §3

[23] = system: EcR2: Cephalosporinase-Hyperproducing Strain of Escherichia coli; test: Antibiogram, MIC by the VITEK 1 system; type: cell-based; conditions: Escherichia coli, read-out: MIC
Experimental: as §2

[24] = system: EcR3: ESBL-Producing Escherichia coli; test: Antibiogram by the disk diffusion technique; type: cell-based
Experimental: The bacterial and antibiogramidentification is carried out by the VITEK 2 system (bioMerieux) and by the disk diffusion technique

[25] = EcR1, Table A2, read-out: MIC mg/L (diameter in mm)
[26] = EcR1, VITEK 2, Table A1, read-out: MIC
[27] = Pseudomonas aeruginosa, Table H2, read-out: MIC
[28] = ATCC29213, antibiotic alone (second value of cell), S. aureus ATCC 29213, read-out: Initial MICs
[29] = antibiotic alone (second value of cell), SaR4, read-out: MIC
[30] = antibiotic alone (second value of cell), SaR3, read-out: MIC
[31] = antibiotic alone (second value of cell), SaR1, read-out: MIC

SMILES: CC(C)(O/N=C(\C(=O)N[C@@H]1C(=O)N2C(C(=O)[O-])=C(C[n+]3ccccc3)CS[C@H]12)c1csc(N)n1)C(=O)O [Ceftazidime]
MIC [1]: 1 µg/mL
MIC [2]: 0.125 µg/mL
MIC [3]: 4 µg/mL
MIC [4]: 16 µg/mL
MIC [5]: 8 µg/mL
MIC [6]: 8 µg/mL
MIC [7]: 0.25 µg/mL
MIC [8]: 8 µg/mL (≈ 14.6 µM)
CA-SFM Interpretation ([9]; EcR1, MIC against Cc CA-SFM 2011): Susceptible
CLSI Interpretation ([9]; EcR1, MIC against Cc CLSI 2011): Susceptible
EUCAST Interpretation ([9]; EcR1, MIC against Cc EUCAST 2011): Susceptible
Results ([9]; EcR1, interpretation of the MIC, Table A1): Susceptible
MIC [9, 25]: ≤ 1 mg/L
MIC [9, 26]: ≤ 1 mg/L
Diameter ([10]; EcR2, disk diffusion, Table B1): 20
Results ([10]; EcR2, rows that print a diameter, Table B1): Intermediate
Diameter ([10]; EcR2, Table B2, diameters): 20 mm
CA-SFM Interpretation ([10]; EcR2, from diameter, CA-SFM 2011): Resistant
CLSI Interpretation ([10]; EcR2, from diameter, CLSI 2011): Intermediate
EUCAST Interpretation ([10]; EcR2, from diameter, EUCAST 2011): Intermediate
CA-SFM Interpretation ([11]; Cc CA-SFM 2011): Susceptible
CLSI Interpretation ([11]; Cc CLSI 2011): Susceptible
EUCAST Interpretation ([11]; Cc EUCAST 2011): Susceptible
MIC [11, 27]: 4 µg/mL (≈ 7.32 µM)
MIC ([11]; Table H1): 4 µg/mL (≈ 7.32 µM)
Results ([11]; Table H1): Susceptible
Diameter ([12]; PaR5, Table I1): 32 mm
Results ([12]; PaR5, Table I1, against Dmin-Dmax): Susceptible
diameter in mm [12]: 32 mm
CA-SFM Interpretation ([12]; disk diffusion, PaR5, versus critical diameter CA-SFM 2011): Susceptible
CLSI Interpretation ([12]; disk diffusion, PaR5, versus critical diameter CLSI 2011): Susceptible
EUCAST Interpretation ([12]; disk diffusion, PaR5, versus critical diameter EUCAST 2011, for ** antibiotics the disk load differs and the EUCAST interpretation is not applicable): Susceptible
CA-SFM Interpretation ([13]; Cd CA-SFM 2011): Susceptible
CLSI Interpretation ([13]; Cd CLSI 2011): Susceptible
EUCAST Interpretation ([13]; Cd EUCAST 2011): Susceptible
Diameter [13]: 23 mm
Results ([13]; Table G1, against Dmin-Dmax): Susceptible
diameter in mm [13]: 23 mm
interaction between the antibiotic and Cx1 [14]: synergism

MIC [15, 28]: 2 mg/L
MIC [16, 29]: 4 µg/mL
MIC [17, 30]: 0.25 µg/mL
MIC [18, 31]: 0.5 µg/mL
MIC mg/L ([19]; Table D2): ≦0.5 mg/L
MIC ([19]; Staphylococcus aureus, Table D1, read-out: MIC): ≤ 0.5 µg/mL
MIC ([21]; Table F1): ≤ 1 µg/mL
MIC ([21]; Table F2, MIC): ≤ 1 µg/mL
SMILES: CC(=O)O[C@H]1C[C@@]2(C)[C@@H](C[C@@H](O)[C@H]3[C@@]4(C)CC[C@@H](O)[C@@H](C)[C@@H]4CC[C@@]32C)/C1=C(\CCC=C(C)C)C(=O)O [Fusidic acid]
CA-SFM Interpretation ([19]; Cc CA-SFM 2011): Susceptible
EUCAST Interpretation ([19]; Cc EUCAST 2011): Susceptible
Results ([19]; Table D1, from MIC): Susceptible
CA-SFM Interpretation ([20]; Cd CA-SFM 2011): Susceptible
EUCAST Interpretation ([20]; Cd EUCAST 2011): Susceptible
Diameter ([20]; Table E1): 29 mm
Results ([20]; Table E1, against Dmin Dmax): Susceptible
diameter in mm ([20]; Table E2): 29 mm
Results ([21]; Table F1, MIC): Susceptible
CA-SFM Interpretation ([21]; from MIC, Cc CA-SFM 2011): Susceptible
EUCAST Interpretation ([21]; from MIC, Cc EUCAST 2011): Susceptible
interaction between the antibiotic and Cx1 [14]: synergism
Diameter [22]: 28 mm
Results ([22]; from diameter, against Dmin Dmax): Susceptible

MIC [1]: 0.125 µg/mL
MIC [2]: 0.125 µg/mL
MIC [3]: 2 µg/mL
MIC [4]: 32 µg/mL
MIC [15, 28]: 0.015 mg/L
MIC [5]: 0.125 µg/mL
MIC [6]: 2 µg/mL
MIC [7]: 0.125 µg/mL
MIC [16, 29]: 2 µg/mL
MIC [17, 30]: 0.25 µg/mL
MIC [18, 31]: 0.25 µg/mL
MIC [8]: 2 µg/mL (≈ 6.68 µM)
MIC [9, 25]: ≤ 0.5 mg/L
MIC [9, 26]: ≤ 1 mg/L
MIC ([23]; EcR2, VITEK 1, Table B1): ≤ 4 µg/mL
MIC ([23]; EcR2, Table B2, MIC): ≤ 0.5 µg/mL
MIC [11, 27]: ≥ 16 µg/mL
MIC ([11]; Table H1): ≧16
SMILES: C[C@@H](O)[C@H]1C(=O)N2C(C(=O)O)=C(SCCN=CN)C[C@H]12 [Imipenem]
Diameter ([24]; Table C1): 27 mm
diameter in mm ([24]; Table C2): 27 mm
Diameter ([12]; PaR5, Table I1): 25 mm
diameter in mm [12]: 25 mm
Diameter [13]: 27 mm
diameter in mm [13]: 27 mm

MIC [15, 28]: 4 mg/L
MIC [16, 29]: 4 µg/mL
MIC [17, 30]: 4 µg/mL
MIC [18, 31]: 4 µg/mL
SMILES: [H]/N=C(/N)N[C@H]1[C@H](O)[C@@H](O)[C@H](O[C@@H]2O[C@@H](C)[C@](O)(C=O)[C@H]2O[C@@H]2O[C@@H](CO)[C@H](O)[C@@H](O)[C@@H]2NC)[C@@H](N/C(N)=N\[H])[C@@H]1O [Streptomycin]
interaction between the antibiotic and Cx1 [14]: synergism

SMILES: CN(C)c1cc(NC(=O)CNC(C)(C)C)c(O)c2c1C[C@H]1C[C@H]3[C@H](N(C)C)C(O)=C(C(N)=O)C(=O)[C@@]3(O)C(O)=C1C2=O [Tigecycline]
MIC ([15]; ATCC29213, read-out: Initial MICs (mg/L)): 0.25 mg/L
MIC [16]: 0.25 µg/mL
MIC [17]: 0.25 µg/mL
MIC [18]: 0.25 µg/mL
interaction between the antibiotic and Cx1 [14]: synergism
